Columns and labels:
[1] = Kinetic measurement of CO2 hydration via stopped flow; assay type: biochemical; conditions: pH 7.4; for Hydration kobs: 25° C.
Source text: (§1) The hydration and dehydration rate measurements were undertaken by detecting the associated pH change through the use of an appropriate colorimetric pH indicator via stopped-flow equipment (Applied Photophysics SX-20 Stopped-flow Spectrometer) as described by B. H. Gibbons et al. (J. Biol. Chem., 238(10), (1963), 3502-3507). The pH time-dependence of CO2 hydration or HCO3− dehydration was observed via the absorbance change of a buffered indicator solution in order to measure the change in Vhydr/dehydr over a concentration range of zinc mimic, and to determine the observed rate constant (kobs) for each reaction.
(§2) Following the procedure reported by K. Nakata et al. (J. Inorg. Biochem., 89, (2002), 255-266), a 0.1 M buffer solution containing 10×10^−5M indicator, 0.2 M NaClO4 and varying concentrations of the zinc complex in DMSO 1:9 H2O were loaded into one syringe and a CO2 or HCO3− aqueous solution in the other. […] The saturated solution was diluted appropriately to give the desired concentration of CO2. HCO3− solutions were prepared by dissolving NaHCO3 in water to give the desired concentration of HCO3−. The buffer-indicator pairs were chosen based upon their similar pKa's, and the pH of the buffer-indicator solution was adjusted to match these pKa's to maximize sensitivity to pH change (see Table 2).
(§3) Upon mixing of the two syringes, the change in absorbance over time was measured at 25° C. For each buffer solution employed over the tested pH range, the buffer factor (change in absorbance vs concentration of HCl/NaOH) and linearity of CO2 and HCO3− (change in absorbance vs concentration of CO2/HCO3−) were determined as controls.
(§4) Based upon the linearity of the response between CO2 or HCO3− concentration and change in absorbance, appropriate concentrations of CO2 or HCO3− were chosen within the linear range for the subsequent complex runs. At each concentration of complex, the Vhydr (rate of hydration) and Vdehyd (rate of dehydration) was measured and kobs (observed rate constant) was calculated as per the procedure of by K. Nakata et al. (J. Inorg. Biochem., 89, (2002), 255-266).
(§5) Briefly, Vhyd/dehyd=−Q(A0−Ae)[d(In(A−Ae))/dt]t→0, where Q=buffer factor. The function [d(In(A−Ae))/dt]t→0 was taken from fitting the first linear portion of the time-dependent absorbance data with a single exponential decay function. kobs was calculated as the slope of the linear fit between mimic concentration and Vhyd/dehyd/[S]. kcat (catalytic rate constant) was calculated as the pH independent catalyst rate constant as per K. Nakata et al. (J. Inorg. Biochem., 89, (2002), 255-266) and L. Koziol et al. (Inorg. Chem., 51(12), (2012) 6803-12) for the hydration reaction (kcat=kobs×(([H^+]/Ka)+1)), and Y.-J. Sun et al. (Inorg. Chem. Commun., 7(2), (2004), 165-168) for the dehydration reaction (kcat=(kobs×([H^+]+Ka))/[H^+]). Each run of 3 repeats was undertaken 3 times and the average taken, to give N=9.

[2] = Kinetic measurement of HCO3− dehydration via stopped flow; assay type: biochemical; conditions: for Dehydration kobs: pH 7.4, 25° C.
Source text: as §1, §2, §3, §4, §5

Rubisco = target: T1, Rubisco (Spinacia oleracea, UniProt P00875); assay: Effect of zinc mimics on Rubisco activity (non-radioactive microplate assay, 3-PGA/NADH oxidation); assay type: biochemical; conditions: pH 8; 0-50 μM zinc mimic; FIGS. 4 to 7
T1 construct: from tissue; purified by the cited method of O'Donnelly et al., Plant Methods 2014
Protocol: Rubisco was purified using hydrophobic interaction chromatography as per the method of K. O'Donnelly et al. (Plant methods, 10, (2014), 17). For all assays, the rate was determined using a non-radioactive microplate-based assay, which determines the product 3-phosphoglycerate (3-PGA) through the oxidation of NADH by optical density measurements at 340 nm at 25° C., adapted from R. Sulpice et al. (Plant Cell Environ., 30(9), (2007), 1163-75) and K. O'Donnelly et al. (Plant methods, 10, (2014), 17). A Thermo Scientific Varioskan Flash Multimode microplate reader was used to monitor the oxidation of NADH for 15 minutes every 100 ms.
The enzymological properties of Rubisco were typically measured as follows: 10 μL Rubisco and 10 μL of initial buffer were incubated for 15 mins, after which 10 μL of ribulose 1,5-biphosphate (RuBP) was added [Final concentrations for Rubisco assay in 30 μL total volume were 0, 10, 20, 40, 80, 150, 300 and 500 μM RuBP, 0.02 mg/mL Rubisco, 100 mM tricine (pH 8.0/NaOH), 20 mM MgCl2, 2 mM EDTA and 10 mM NaHCO3]. […] The activity was calculated as μmol·min^−l·mg^−1 using a calibration curve with 3PGA. […]
10 μL of Rubisco and 10 μL of pH 8 initial buffer containing varying concentrations of zinc complex were incubated in a 96 well plate for 15 mins. […] The final pH, after the addition of NaHCO3, and before the addition of Rubisco, was measured as pH 8.0. […]

[3] = system: spinach (Spinacia oleracea L.); assay: Effect of zinc mimics on spinach growth (number of new leaves); assay type: in vivo; conditions: 1.5 mM in DMSO or H2O, 5 μl droplets to each leaf, three times a week for two weeks, FIG. 8
Protocol: Commercial cultivar spinach seeds (Spinacia oleracea L.) were planted in soil mixture of “John Innes Inc. seed sowing compost No2”: Vermiculite (4:1) in small pots. Spinach seeds were germinated in a Sanyo MLR-352 growth chamber under day (photosynthetically active photon flux density (PPFD) at 110-130 μmol·m-2s-1) and night conditions, changing every 12 hours. Air temperature was maintained at 20° C. and 15° C. during day and night conditions, respectively, with a constant relative humidity at 65%. Spinach plants were irrigated three times a week. At the second true leaf stage (approximately 3 weeks from seed germination), the seeds were transferred into larger singular pots in “John Innes No2—Potting on compost” soil. No extra fertilizer was added.
At the fourth true leaf stage (roughly 4-6 weeks after germination), the treatment (1.5 mM in DMSO or H2O) was applied directly to each leaf of the plant in 5 μl droplets using a Brand Handystep S. The treatments were applied three times a week (directly after irrigation) for two weeks. The leaf stage and the state of the leaves were observed throughout the treatment period.

[4] = high substrate concentration (16.9 mM)
[5] = low substrate concentration (1.69 mM)

| Compound | Hydration:Dehydration Ratio [1, 4] | Hydration kobs [1, 4] [M⁻¹ s⁻¹] | Hydration:Dehydration Ratio [1, 5] | Hydration kobs [1, 5] [M⁻¹ s⁻¹] | Dehydration kobs [2, 4] [M⁻¹ s⁻¹] | Dehydration kobs [2, 5] [M⁻¹ s⁻¹] | rubisco activity (Rubisco) | specificity toward dehydration ([2]; from the results in Tables 3 and 4, pH 7.4) | number of new leaves [3] |
| --- | --- | --- | --- | --- | --- | --- | --- | --- | --- |
| O.[O-][Cl+3]([O-])([O-])[O-].[O-][Cl+3]([O-])([O-])[O-].[Zn+2].c1ccc2sc(CNCc3nc4ccccc4s3)nc2c1 [Zn2S, zinc complex of bis(2-benzothiazolylmethyl)amine] | 0.57 | 17.5 ± 8.6 | 3.01 | 347.1 ± 33.0 | 30.6 ± 0.6 | 115.2 ± 1.8 | – | – | – |
| O.[O-][Cl+3]([O-])([O-])[O-].[O-][Cl+3]([O-])([O-])[O-].[Zn+2].c1ccc2sc(CN(Cc3nc4ccccc4s3)Cc3nc4ccccc4s3)nc2c1 [Zn3S, zinc complex of tris(2-benzothiazolylmethyl)amine] | 0.65 | 24.5 ± 10.4 | 3.05 | 429.7 ± 51.2 | 37.8 ± 0.8 | 140.8 ± 4.8 | significant improvement in activity | – | – |
| zinc complex of bis(2-benzimidazolylmethyl)(2-benzothiazolylmethyl)amine [Zn2N1S] | 0.60 | 26.6 ± 11.1 | 3.14 | 495.4 ± 34.0 | 44.6 ± 1.6 | 157.6 ± 2.1 | – | – | – |
| zinc complex of bis(2-benzimidazolylmethyl)amine [Zn2N] | 0.80 | 22.0 ± 9.3 | 3.94 | 370.6 ± 13.4 | 27.5 ± 0.5 | 94.1 ± 1.6 | – | – | – |
| zinc complex of bis(2-benzothiazolylmethyl)(2-benzimidazolylmethyl)amine [Zn1N2S] | 0.49 | 25.3 ± 8.4 | 2.57 | 440.8 ± 24.5 | 51.9 ± 0.5 | 171.3 ± 4.5 | significant improvement in activity | best specificity toward dehydration | – |
| zinc complex of tris(2-benzimidazolylmethyl)amine [Zn3N] | 1.02 | 34.4 ± 11.3 | 4.13 | 512.3 ± 60.3 | 33.8 ± 0.8 | 124.1 ± 1.8 | – | – | significant improvement in the number of new leaves |

Source: patent US12402627B2, “Metal complexes for promoting growth in a photosynthetic organism” (Imperial College Innovations Limited, priority 2018, dated 2025)
